Data reported in patent publication US20080287515A1, “Topical compositions containing metronidazole” (priority 2007, published 2008).

What was measured:
[1] = Physical stability test of aqueous metronidazole compositions (crystal formation or precipitation); assay type: physicochemical; settings: for Concentration required to obtain a stable aqueous solution of 1.0% metronidazole: as the only solubility enhancing agent
Experimental: The solubility enhancing effect of the combination of urea and hydroxyalkyl urea in increasing the solubility of metronidazole in the aqueous compositions is evaluated by physical stability of the prepared compositions.
Therefore, the formulations are subject to a physical stability test. The protocol for the stability test is as follows: metronidazole and the solubility enhancing agents are combined with water either at room temperature or elevated temperature while stirring until dissolved. The solutions are permitted to cool to room temperature. Customary auxiliaries and additives may be added to the aqueous solutions containing solubilized metronidazole and solubility enhancing agents. The solutions may be gelled by using the suitable gelling agents. The compositions both in gel or solution form are then packaged in clear glass vials and sealed. The vials are kept at room temperature for 24 hours and monitored for crystal formation or precipitation. After 24 hours, the vials are placed in a refrigerator maintained at a temperature of about 4° C. for 7 days. After 7 days, the vials are removed from the refrigerator. Evidence of crystal formation or precipitation in the compositions is examined.
(§1) Each formulation was prepared by combining urea and metronidazole in water (q.s 100%). The mixture was kept at a temperature of about 45° C. while stirring until dissolved. The solutions were permitted to cool to room temperature, packaged and sealed in glass vials. The stability tests described in Example 1 were performed and the test results were recorded.
as §1, with “combining N-2-hydroxyethyl” for “combining”, “45°C.” for “45° C.”
as §1, with “N-2-hydroxyethyl urea, urea,” for “urea”, “kept either at room temperature or” for “kept”, “recorded. […]” for “recorded.”

[2] = at 25 °C; cited from earlier work

NC(N)=O [urea]
Concentration required to obtain a stable aqueous solution of 1.0% metronidazole [1]: about 10%
Concentration of urea needed to obtain a stable aqueous solution of 1.0% metronidazole ([1]; concentration of N-2-hydroxyethyl urea is 1.0%): ≥ 8.0%
N-2-hydroxyethyl urea functionally equivalent to 1% urea in inducing the solubility enhancing effect ([1]; from Examples 2 and 3): about 1.6%
Water solubility limit [2]: about 50 % by weight

Cc1ncc([N+](=O)[O-])n1CCO [Metronidazole, 1-(2-hydroxyethyl)-2-methyl-5-nitroimidazole]
Results from stability test ([1]; 1.0% N-2-hydroxyethyl urea, 7.0% urea, 1.0% metronidazole in water, 7 days at about 4 °C): Crystals
Results from stability test ([1]; 1.0% N-2-hydroxyethyl urea, 8.0% urea, 1.0% metronidazole in water, 7 days at about 4 °C): Clear
Results from stability test ([1]; 1.0% N-2-hydroxyethyl urea, 9.0% urea, 1.0% metronidazole in water, 7 days at about 4 °C): Clear
Results from stability test ([1]; 5.0% N-2-hydroxyethyl urea, 2.0% urea, 1.0% metronidazole in water, 7 days at about 4 °C): Clear
Results from stability test ([1]; 5.0% N-2-hydroxyethyl urea, 2.0% urea, 1.0% metronidazole in water, 7 days at about 4 °C, listed as metronidazole): stable
Results from stability test ([1]; 5.0% N-2-hydroxyethyl urea, 3.0% urea, 1.0% metronidazole in water, 7 days at about 4 °C): Clear
Results from stability test ([1]; 5.0% N-2-hydroxyethyl urea, 4.0% urea, 1.0% metronidazole in water, 7 days at about 4 °C): Clear
Results from stability test ([1]; 5.0% N-2-hydroxyethyl urea, 5.0% urea, 1.0% metronidazole in water, 7 days at about 4 °C): Clear
Results from stability test ([1]; 7% urea, 1.0% metronidazole in water, 24 h room temperature then 7 days at about 4 °C): Crystals formed
Results from stability test ([1]; 8.0% N-2-hydroxyethyl urea, 1.0% urea, 1.0% metronidazole in water, 7 days at about 4 °C): Crystals
Results from stability test ([1]; 8.0% N-2-hydroxyethyl urea, 8.0% urea, 1.2% metronidazole in water, 7 days at about 4 °C): Clear
Results from stability test ([1]; 8% urea, 1.0% metronidazole in water, 24 h room temperature then 7 days at about 4 °C): Crystals formed
Results from stability test ([1]; 9.0% N-2-hydroxyethyl urea, 1.0% urea, 1.0% metronidazole in water, 7 days at about 4 °C): Crystals
Results from stability test ([1]; 9% urea, 1.0% metronidazole in water, 24 h room temperature then 7 days at about 4 °C): Crystals formed
Results from stability test ([1]; 10.0% N-2-hydroxyethyl urea, 1.0% urea, 1.0% metronidazole in water, 7 days at about 4 °C): Clear
Results from stability test ([1]; 10% urea, 1.0% metronidazole in water, 24 h room temperature then 7 days at about 4 °C): Clear
Results from stability test ([1]; 13% N-2-hydroxyethyl urea, 1.0% metronidazole in water, 24 h room temperature then 7 days at about 4 °C): Crystals formed
Results from stability test ([1]; 14% N-2-hydroxyethyl urea, 1.0% metronidazole in water, 24 h room temperature then 7 days at about 4 °C): Crystals formed
Results from stability test ([1]; 15% N-2-hydroxyethyl urea, 1.0% metronidazole in water, 24 h room temperature then 7 days at about 4 °C): Crystals formed
Results from stability test ([1]; 16% N-2-hydroxyethyl urea, 1.0% metronidazole in water, 24 h room temperature then 7 days at about 4 °C): Clear

NC(=O)NCCO [N-2-hydroxyethyl urea]
Concentration required to obtain a stable aqueous solution of 1.0% metronidazole [1]: about 16%
Concentration of N-2-hydroxyethyl urea needed to obtain a stable aqueous solution of 1.0% metronidazole ([1]; concentration of urea is 1.0%): ≥ 9.0%
